Data reported in patent US6841569B2, “Carbamates of 2-heterocyclic-1,2-ethanediols” (SK Corporation, priority 2001, dated 2005).

Tests used:
mice (ICR strain) = assay: Maximal ElectroShock (MES) test; assay type: in vivo; settings: dosed i.p., Hour 1, elimination of hindlimb tonic extension, 50 mA-60 Hz for 0.2 second
Experimental: The therapeutic use of the compounds of formula I as anticonvulsants has been established by the “Maximal ElectroShock (MES)” test, which is a well-established pharmacological screening method for anticonvulsants against partial seizures, and the results are presented in Table I. The procedure employed in the MES test for anticonvulsants is as follows. The dosing solutions of the compounds to be tested were prepared in saline. The subjects, namely, mice (ICR strain), were dosed i.p. After the designated number of hours, maximal electroshock was induced in mice via corneal electrodes using IITC Life Science model 11A Shocker at 50 mA-60 Hz for 0.2 second. […] Median efficacy dose (ED50) levels were determined using three different dose levels with at least 6 mice in each group.

Row | melting point [°C] | SMILES | MES ED50 (mice (ICR strain)) [mg/kg]
1 | – | CNC(=O)OCC(OC(=O)NC)c1ccc(Cl)s1 (stereo not drawn) [Example 7] | 37.4
2 | – | NC(=O)OCC(OC(N)=O)c1ccc(C(F)(F)F)s1 (stereo not drawn) [Example 14, (2-(5-trifluoromethyl-2-thienyl)-2-carbomoyloxyethyl)oxocarboxamide] | 12.6
3 | 71 to 73 | O=NC(=O)CC(O)c1cccs1 (stereo not drawn) [Example 21, (2-(2-thienyl)-2-hydroxyethyl)oxocarboxamide] | –
